Assay results published in patent US20080234262A1 (Wyeth, priority 2007, published 2008).

Test system: breast line MDA468
Assay: In vitro cell culture growth assay (MTS), MDA468
Format: cell-based, human
Conditions: MDA468 cells, three days after drug treatment
Protocol: Human tumor cell lines used include prostate lines LNCap and PC3MM2, breast lines MDA468, MCF7, renal line HTB44 (A498), colon line HCT116, and ovarian line OVCAR3. Cells were plated in 96-well culture plates. One day following plating, the inhibitors were added to cells. Three days after drug treatment, viable cell densities were determined by metabolic conversion (by viable cells) of the dye MTS, a well established cell proliferation assay. The assays were performed using an assay kit purchased from Promega Corp. (Madison, Wis.) following the protocol supplied with the kit. The MTS assay results were read in a 96-well plate reader by measuring absorbance at 490 nm. The effect of each treatment was calculated as percent of control growth relative to the vehicle-treated cells grown in the same culture plate.

Row | SMILES | IC50 (Homo sapiens, 72 h) | IC50
1 | COC(=O)N1CCC(n2ncc3c(N4CCOCC4)nc(-c4ccc(NC(=O)Nc5ccccc5)cc4)nc32)CC1 [Compound 735, methyl 4-(6-{4-[(anilinocarbonyl)amino]phenyl}-4-morpholin-4-yl-1H-pyrazolo[3,4-d]pyrimidin-1-yl)piperidine-1-carboxylate] | 80 nM | 
2 | CCNC(=O)Nc1ccc(-c2nc(N3CCOCC3)c3cnn(C4CCN(Cc5ccccc5)CC4)c3n2)cc1 [Example 253, 1-{4-[1-(1-benzylpiperidin-4-yl)-4-morpholin-4-yl-1H-pyrazolo[3,4-d]pyrimidin-6-yl]phenyl}-3-ethylurea] | 400 nM | 
3 | CN(C)CCNC(=O)Nc1ccc(-c2nc(N3CCOCC3)c3cnn(C4CCN(Cc5ccccc5)CC4)c3n2)cc1 [Compound 513, 1-{4-[1-(1-benzylpiperidin-4-yl)-4-morpholin-4-yl-1H-pyrazolo[3,4-d]pyrimidin-6-yl]phenyl}-3-[2-(dimethylamino)ethyl]urea] | 600 nM | 
4 | O=C(Nc1ccc(-c2nc(N3CCOCC3)c3cnn(C4CCN(Cc5ccccc5)CC4)c3n2)cc1)Nc1ncc[nH]1 [Example 326, 1-{4-[1-(1-benzylpiperidin-4-yl)-4-morpholin-4-yl-1H-pyrazolo[3,4-d]pyrimidin-6-yl]phenyl}-3-(1H-imidazol-2-yl)urea] | 3500 nM | 
5 | CN1CCC(NC(=O)Nc2ccc(-c3nc(N4CCOCC4)c4cnn(C5CCN(Cc6ccccc6)CC5)c4n3)cc2)CC1 [Compound 517, 1-{4-[1-(1-benzylpiperidin-4-yl)-4-morpholin-4-yl-1H-pyrazolo[3,4-d]pyrimidin-6-yl]phenyl}-3-(1-methylpiperidin-4-yl)urea] | 1200 nM | 
6 | COC(=O)N1CCC(n2ncc3c(N4CCOCC4)nc(-c4ccc(NC(=O)NCCF)cc4)nc32)CC1 [Compound 732, methyl 4-[6-(4-{[(2-fluoroethyl)carbamoyl]amino}phenyl)-4-morpholin-4-yl-1H-pyrazolo[3,4-d]pyrimidin-1-yl]piperidine-1-carboxylate] | 90 nM | 
7 | CNC(=O)Nc1ccc(-c2nc(N3CCOCC3)c3cnn(C4CCN(C(=O)OC)CC4)c3n2)cc1 [Compound 720, methyl 4-(6-{4-[(methylcarbamoyl)amino]phenyl}-4-morpholin-4-yl-1H-pyrazolo[3,4-d]pyrimidin-1-yl)piperidine-1-carboxylate] |  | 95 nM
8 | CN(C)NC(=O)Nc1ccc(-c2nc(N3CCOCC3)c3cnn(C4CCN(Cc5ccccc5)CC4)c3n2)cc1 [Compound 536, N-{4-[1-(1-benzylpiperidin-4-yl)-4-morpholin-4-yl-1H-pyrazolo[3,4-d]pyrimidin-6-yl]phenyl}-2,2-dimethylhydrazinecarboxamide] | 8000 nM | 
9 | COC(=O)N1CCC(n2ncc3c(N4CCOCC4)nc(-c4ccc(NC(=O)Nc5ccc(N6CCN(C)CC6)cc5)cc4)nc32)CC1 [Compound 910, methyl 4-{6-[4-({[4-(4-methylpiperazin-1-yl)phenyl]carbamoyl}amino)phenyl]-4-morpholin-4-yl-1H-pyrazolo[3,4-d]pyrimidin-1-yl}piperidine-1-carboxylate] | 0.8 nM | 
10 | COC(=O)N1CCC(n2ncc3c(N4CCOCC4)nc(-c4ccc(NC(=O)Nc5ccc(CCN6CCN(C)CC6)cc5)cc4)nc32)CC1 [Compound 917, methyl 4-(6-{4-[({4-[2-(4-methylpiperazin-1-yl)ethyl]phenyl}carbamoyl)amino]phenyl}-4-morpholin-4-yl-1H-pyrazolo[3,4-d]pyrimidin-1-yl)piperidine-1-carboxylate] | 60 nM | 
11 | CC(C)(C)OC(=O)N1CCC(n2ncc3c(N4CCOCC4)nc(-c4ccc(NC(=O)NCCF)cc4)nc32)CC1 [Compound 765, tert-butyl 4-[6-(4-{[(2-fluoroethyl)carbamoyl]amino}phenyl)-4-morpholin-4-yl-1H-pyrazolo[3,4-d]pyrimidin-1-yl]piperidine-1-carboxylate] | 360 nM | 
12 | CNC(=O)Nc1ccc(-c2nc(N3CCOCC3)c3cnn(C4CCN(C(=O)OC(C)C)CC4)c3n2)cc1 [Compound 752, isopropyl 4-(6-{4-[(methylcarbamoyl)amino]phenyl}-4-morpholin-4-yl-1H-pyrazolo[3,4-d]pyrimidin-1-yl)piperidine-1-carboxylate] | 53 nM | 
13 | COC(=O)Nc1ccc(-c2nc(N3CCOCC3)c3cnn(C4CCN(Cc5cccnc5)CC4)c3n2)cc1 [Example 209, methyl (4-{4-morpholin-4-yl-1-[1-(pyridin-3-ylmethyl)piperidin-4-yl]-1H-pyrazolo[3,4-d]pyrimidin-6-yl}phenyl)carbamate] | 1500 nM | 
14 | CN(C)NC(=O)Nc1ccc(-c2nc(N3CCOCC3)c3cnn(C4CCN(Cc5ccccc5)CC4)c3n2)cc1 [Compound 290, N-{4-[1-(1-benzylpiperidin-4-yl)-4-morpholin-4-yl-1H-pyrazolo[3,4-d]pyrimidin-6-yl]phenyl}-2,2-dimethylhydrazinecarboxamide] | 8000 nM | 
15 | COC(=O)N1CCC(n2ncc3c(N4CCOCC4)nc(-c4ccc(NC(=O)NC5CC5)cc4)nc32)CC1 [Compound 734, methyl 4-(6-{4-[(cyclopropylcarbamoyl)amino]phenyl}-4-morpholin-4-yl-1H-pyrazolo[3,4-d]pyrimidin-1-yl)piperidine-1-carboxylate] | 150 nM | 
16 | COC(=O)N1CCC(n2ncc3c(N4CCOCC4)nc(-c4ccc(NC(=O)Nc5ccc(CCN6CCCC6)cc5)cc4)nc32)CC1 [Compound 914, methyl 4-{4-morpholin-4-yl-6-[4-({[4-(2-pyrrolidin-1-ylethyl)phenyl]carbamoyl}amino)phenyl]-1H-pyrazolo[3,4-d]pyrimidin-1-yl}piperidine-1-carboxylate] | 20 nM | 
17 | COC(=O)N1CCC(n2ncc3c(N4CCOCC4)nc(-c4ccc(N)cc4)nc32)CC1 [Compound 741, methyl 4-[6-(4-aminophenyl)-4-morpholin-4-yl-1H-pyrazolo[3,4-d]pyrimidin-1-yl]piperidine-1-carboxylate] | 12000 nM | 
18 | COC(=O)N1CCC(n2ncc3c(N4CCOCC4)nc(-c4ccc(NC(=O)Nc5ccc(CCN6CCOCC6)cc5)cc4)nc32)CC1 [Compound 918, methyl 4-{4-morpholin-4-yl-6-[4-({[4-(2-morpholin-4-ylethyl)phenyl]carbamoyl}amino)phenyl]-1H-pyrazolo[3,4-d]pyrimidin-1-yl}piperidine-1-carboxylate] | 180 nM | 
19 | CONC(=O)Nc1ccc(-c2nc(N3CCOCC3)c3cnn(C4CCN(Cc5ccccc5)CC4)c3n2)cc1 [Compound 532, 1-{4-[1-(1-benzylpiperidin-4-yl)-4-morpholin-4-yl-1H-pyrazolo[3,4-d]pyrimidin-6-yl]phenyl}-3-methoxyurea] | 160 nM | 
20 | CN(C)C(=O)Nc1ccc(-c2nc(N3CCOCC3)c3cnn(C4CCN(Cc5ccccc5)CC4)c3n2)cc1 [Compound 205] | 8000 nM | 
21 | O=C(Nc1ccc(-c2nc(N3CCOCC3)c3cnn(C4CCN(Cc5ccccc5)CC4)c3n2)cc1)Nc1ncc[nH]1 [Compound 570, 1-{4-[1-(1-benzylpiperidin-4-yl)-4-morpholin-4-yl-1H-pyrazolo[3,4-d]pyrimidin-6-yl]phenyl}-3-(1H-imidazol-2-yl)urea] | 3500 nM | 
22 | CN1CCC(NC(=O)Nc2ccc(-c3nc(N4CCOCC4)c4cnn(C5CCN(Cc6ccccc6)CC5)c4n3)cc2)CC1 [Compound 272] | 1200 nM | 
23 | O=C(Nc1ccccc1)Nc1ccc(-c2nc(N3CCOCC3)c3cnn(C4CCN(Cc5ccccc5)CC4)c3n2)cc1 [Compound 503, 1-{4-[1-(1-benzylpiperidin-4-yl)-4-morpholin-4-yl-1H-pyrazolo[3,4-d]pyrimidin-6-yl]phenyl}-3-phenylurea] | 1050 nM | 
24 | CC(C)OC(=O)N1CCC(n2ncc3c(N4CCOCC4)nc(-c4ccc(NC(=O)NC5CC5)cc4)nc32)CC1 [Compound 835, isopropyl 4-(6-{4-[(cyclopropylcarbamoyl)amino]phenyl}-4-morpholin-4-yl-1H-pyrazolo[3,4-d]pyrimidin-1-yl)piperidine-1-carboxylate] | 320 nM | 
25 | COC(=O)Nc1ccc(-c2nc(N3CCOCC3)c3cnn(C4CCN(Cc5ccccc5)CC4)c3n2)cc1 [Example 154, methyl {4-[1-(1-benzylpiperidin-4-yl)-4-morpholin-4-yl-1H-pyrazolo[3,4-d]pyrimidin-6-yl]phenyl}carbamate] | 3000 nM | 
26 | O=C(NCCO)Nc1ccc(-c2nc(N3CCOCC3)c3cnn(C4CCN(Cc5ccccc5)CC4)c3n2)cc1 [Example 265, 1-{4-[1-(1-benzylpiperidin-4-yl)-4-morpholin-4-yl-1H-pyrazolo[3,4-d]pyrimidin-6-yl]phenyl}-3-(2-hydroxyethyl)urea] | 100 nM | 
27 | CN(C)CCNC(=O)Nc1ccc(-c2nc(N3CCOCC3)c3cnn(C4CCN(Cc5ccccc5)CC4)c3n2)cc1 [Compound 268, 1-{4-[1-(1-benzylpiperidin-4-yl)-4-morpholin-4-yl-1H-pyrazolo[3,4-d]pyrimidin-6-yl]phenyl}-3-[2-(dimethylamino)ethyl]urea] | 600 nM | 
28 | CNC(=O)Nc1ccc(-c2nc(N3CCOCC3)c3cnn(C4CCN(C(=O)OC(C)(C)C)CC4)c3n2)cc1 [Example 337, tert-butyl 4-(6-{4-[(methylcarbamoyl)amino]phenyl}-4-morpholin-4-yl-1H-pyrazolo[3,4-d]pyrimidin-1-yl)piperidine-1-carboxylate] | 300 nM | 
29 | O=C(Nc1ccccc1)Nc1ccc(-c2nc(N3CCOCC3)c3cnn(C4CCN(Cc5ccccc5)CC4)c3n2)cc1 [Example 257, 1-{4-[1-(1-benzylpiperidin-4-yl)-4-morpholin-4-yl-1H-pyrazolo[3,4-d]pyrimidin-6-yl]phenyl}-3-phenylurea] | 1100 nM | 
30 | O=C(Nc1ccc(-c2nc(N3CCOCC3)c3cnn(C4CCN(Cc5ccccc5)CC4)c3n2)cc1)NC1CC1 [Example 311, 1-{4-[1-(1-benzylpiperidin-4-yl)-4-morpholin-4-yl-1H-pyrazolo[3,4-d]pyrimidin-6-yl]phenyl}-3-cyclopropylurea] | 1100 nM | 
